Data as given in patent US10251889B2, “Substituted pyrazolo[1,5-a]pyrimidine compounds as Trk kinase inhibitors” (Array BioPharma, Inc., priority 2009, dated 2019).

Molecular target: Jak2 (human Jak2 kinase domain, amino acids 808-1132) (Homo sapiens (Human), UniProt O60674)
Assay: Jak2 inhibition assay (Omnia kinase assay)
Format: biochemical
Conditions: read-out: Jak2 Enzyme (% inhibition at 1000 nM), Table 1; 1000 nM test compound
Experimental: The assays described in Examples C, D, E and F for the determination of JAK1, JAK2, JAK3 and Tyk2 kinase activity, respectively, utilized the Omnia® Kinase fluorescence peptide substrate-based technology (Invitrogen). […] The reactions were therefore read at excitation 360 nm and emission was measured at 485 nm every 50 seconds for 45 minutes using a PerkinElmer EnVision Multilabel Plate Reader.
The final buffer conditions for each of the JAK1, JAK2, JAK3 and Tyk2 assays were as follows: 25 mM HEPES, pH 7.4, 10 mM MgCl2, 0.01% Triton X-100 and 1 mM DTT.
Two-μL aliquots of these were transferred to a fresh plate for a ten-fold intermediate dilution with assay buffer. Five-μL aliquots of the diluted compounds were then transferred to 20-μL of assay mixtures described in Examples C, D, E and F for a final concentration of DMSO of 2%. […] For each plate, percent of control (POC) values were calculated for each well according to the following equation:
where Xmax=Average Uninhibited Controls • Xmin=Average Background IC50's were estimated from the POC's using a standard 4-parameter logistic model:
where A=Minimum Y (Bottom Asymptote) • B=Maximum Y (Top Asymptote) • C=EC50 • D=Slope Factor • X=Compound Concentration (nM) • Y=POC
The IC50 is defined as the concentration of inhibitor at which the POC equals 50 for the fitted curve.
Compounds of Formula I were screened for their ability to inhibit Jak2 using the general enzyme inhibition assay method, in which the assay mixture contained 500 μM ATP, 10 μM Omnia® Y7 peptide (Catalog # IVGN KNZ3071C, Invitrogen Corporation, Carlsbad, Calif.) and 4 nM Jak2 in a total volume of 20 μL. Human Jak2 kinase domain comprising amino acids 808-1132 was purchased from Invitrogen Corporation, Carlsbad, Calif. (catalog # IVGN PV4210).

Jak2 (human Jak2 kinase domain, amino acids 808-1132), sequence (O60674 808-1132): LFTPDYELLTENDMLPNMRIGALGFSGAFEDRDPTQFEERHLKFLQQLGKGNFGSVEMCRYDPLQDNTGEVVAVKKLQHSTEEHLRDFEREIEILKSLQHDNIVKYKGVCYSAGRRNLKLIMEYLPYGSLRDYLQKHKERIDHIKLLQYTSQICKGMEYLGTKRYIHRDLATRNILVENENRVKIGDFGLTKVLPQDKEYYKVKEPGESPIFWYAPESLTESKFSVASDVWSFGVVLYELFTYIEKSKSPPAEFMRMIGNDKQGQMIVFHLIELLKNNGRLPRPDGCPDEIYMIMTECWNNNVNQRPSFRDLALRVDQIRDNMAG

Row | inhibition at 1 µM [%] | SMILES
1 | 18.8 | O=C(NCCN1CCOCC1)c1cnn2ccc(N3CCC[C@@H]3c3cc(F)ccc3F)nc12 [Example 4, (R)-5-(2-(2,5-difluorophenyl)pyrrolidin-1-yl)-N-(2-morpholinoethyl)pyrazolo[1,5-a]pyrimidine-3-carboxamide]
2 | 4.7 | CC(C)(N)CNC(=O)c1cnn2ccc(N3CCC[C@@H]3c3cc(F)ccc3F)nc12 [Example 58, (R)—N-(2-amino-2-methylpropyl)-5-(2-(2,5-difluorophenyl)pyrrolidin-1-yl)pyrazolo[1,5-a]pyrimidine-3-carboxamide]
3 | 2.7 | O=C(NOCCO)c1cnn2ccc(N3CCC[C@@H]3c3cc(F)cnc3Cl)nc12 [Example 225, (R)-5-(2-(2-chloro-5-fluoropyridin-3-yl)pyrrolidin-1-yl)-N-(2-hydroxyethoxy)pyrazolo[1,5-a]pyrimidine-3-carboxamide]
4 | 10.2 | COc1ncc(F)cc1[C@H]1CCCN1c1ccn2ncc(C(=O)NCC(O)CO)c2n1 (stereo partly drawn) [Example 149, N-(2,3-dihydroxypropyl)-5-((R)-2-(5-fluoro-2-methoxypyridin-3-yl)pyrrolidin-1-yl)pyrazolo[1,5-a]pyrimidine-3-carboxamide]
5 | 15.1 | O=C(NOC[C@@H](O)CO)c1cnn2ccc(N3CCC[C@@H]3c3cc(F)ccc3F)nc12 [Example 88, 5-((R)-2-(2,5-difluorophenyl)pyrrolidin-1-yl)-N—((S)-2,3-dihydroxypropoxy)pyrazolo[1,5-a]pyrimidine-3-carboxamide]
6 | 24.7 | O=C(NOCC1CC1)c1cnn2ccc(N3CCC[C@@H]3c3cc(F)ccc3F)nc12 [Example 66, (R)—N-(cyclopropylmethoxy)-5-(2-(2,5-difluorophenyl)pyrrolidin-1-yl)pyrazolo[1,5-a]pyrimidine-3-carboxamide]
7 | 13.8 | CS(=O)(=O)NCCNC(=O)c1cnn2ccc(N3CCC[C@@H]3c3cc(F)ccc3F)nc12 [Example 46, (R)-5-(2-(2,5-difluorophenyl)pyrrolidin-1-yl)-N-(2-(methylsulfonamido)ethyl)pyrazolo[1,5-a]pyrimidine-3-carboxamide]
8 | 6.4 | C[C@@H](O)[C@H](CO)NC(=O)c1cnn2ccc(N3CCC[C@@H]3c3cc(F)ccc3F)nc12 [Example 174, 5-((R)-2-(2,5-difluorophenyl)pyrrolidin-1-yl)-N-((2S,3R)-1,3-dihydroxybutan-2-yl)pyrazolo[1,5-a]pyrimidine-3-carboxamide]
9 | 13.2 | O=C(NC[C@H](O)CO)c1cnn2ccc(N3CCC[C@@H]3c3cc(F)ccc3F)nc12 [Example 29, 5-((R)-2-(2,5-difluorophenyl)pyrrolidin-1-yl)-N—((S)-2,3-dihydroxypropyl)pyrazolo[1,5-a]pyrimidine-3-carboxamide]

Continued, compound first:

Row | SMILES | inhibition at 1 µM [%]
10 | O=C(c1cnn2ccc(N3CCC[C@@H]3c3cncc(F)c3)nc12)N1CC(CO)C1 [Example 127, (R)-(5-(2-(5-fluoropyridin-3-yl)pyrrolidin-1-yl)pyrazolo[1,5-a]pyrimidin-3-yl)(3-(hydroxymethyl)azetidin-1-yl)methanone] | 0.2
11 | NC(=O)c1cnn2ccc(N3CCC[C@@H]3c3cc(F)ccc3C(F)(F)F)nc12 [Example 64, (R)-5-(2-(5-fluoro-2-(trifluoromethyl)phenyl)pyrrolidin-1-yl)pyrazolo[1,5-a]pyrimidine-3-carboxamide] | 60.3
12 | CC(C)(C)NC(=O)c1cnn2ccc(N3CCC[C@@H]3c3cccc(F)c3)nc12 [Example 36, (R)—N-tert-butyl-5-(2-(3-fluorophenyl)pyrrolidin-1-yl)pyrazolo[1,5-a]pyrimidine-3-carboxamide] | 22.2
13 | C[C@@H](NC(=O)c1cnn2ccc(N3[C@H](CO)CC[C@@H]3c3cncc(F)c3)nc12)C(F)(F)F [Example 212, 5-((2R,5S)-2-(5-fluoropyridin-3-yl)-5-(hydroxymethyl)pyrrolidin-1-yl)-N—((R)-1,1,1-trifluoropropan-2-yl)pyrazolo[1,5-a]pyrimidine-3-carboxamide] | 14.2
14 | CC(C)(CO)CNC(=O)c1cnn2ccc(N3CCC[C@@H]3c3cncc(F)c3)nc12 [Example 125, (R)-5-(2-(5-fluoropyridin-3-yl)pyrrolidin-1-yl)-N-(3-hydroxy-2,2-dimethylpropyl)pyrazolo[1,5-a]pyrimidine-3-carboxamide] | 6.1
15 | CC1(O)CN(C(=O)c2cnn3ccc(N4CCC[C@@H]4c4cncc(F)c4)nc23)C1 [Example 92, (R)-(5-(2-(5-fluoropyridin-3-yl)pyrrolidin-1-yl)pyrazolo[1,5-a]pyrimidin-3-yl)(3-hydroxy-3-methylazetidin-1-yl)methanone] | 0.5
16 | O=C(NC1CC1)c1cnn2ccc(N3CCC[C@@H]3c3cc(F)cc(OCC(O)CO)c3)nc12 (stereo partly drawn) [Example 208, N-cyclopropyl-5-((2R)-2-(3-(2,3-dihydroxypropoxy)-5-fluorophenyl)pyrrolidin-1-yl)pyrazolo[1,5-a]pyrimidine-3-carboxamide] | 21.2
17 | CC(C)(C)NC(=O)c1cnn2ccc(N3CCC[C@@H]3c3cc(F)c[nH]c3=O)nc12 [Example 202, (R)—N-tert-butyl-5-(2-(5-fluoro-2-oxo-1,2-dihydropyridin-3-yl)pyrrolidin-1-yl)pyrazolo[1,5-a]pyrimidine-3-carboxamide] | 11.5
18 | CC(C)(C#N)NC(=O)c1cnn2ccc(N3CCC[C@@H]3c3cncc(F)c3)nc12 [Example 69, (R)—N-(2-cyanopropan-2-yl)-5-(2-(5-fluoropyridin-3-yl)pyrrolidin-1-yl)pyrazolo[1,5-a]pyrimidine-3-carboxamide] | 6
19 | CONC(=O)c1cnn2ccc(N3CCC[C@@H]3c3cc(F)cnc3OC)nc12 [Example 83, (R)-5-(2-(5-fluoro-2-methoxypyridin-3-yl)pyrrolidin-1-yl)-N-methoxypyrazolo[1,5-a]pyrimidine-3-carboxamide] | 26.3
20 | O=C(N[C@H]1CCC[C@@H]1O)c1cnn2ccc(N3CCC[C@@H]3c3cncc(F)c3)nc12 [Example 103, 5-((R)-2-(5-fluoropyridin-3-yl)pyrrolidin-1-yl)-N-((1S,2S)-2-hydroxycyclopentyl)pyrazolo[1,5-a]pyrimidine-3-carboxamide] | 4.5
21 | CC(NC(=O)c1cnn2ccc(N3CCCC3c3cncc(F)c3)nc12)C1CC1 [Example 113, N-(1-cyclopropylethyl)-5-((R)-2-(5-fluoropyridin-3-yl)pyrrolidin-1-yl)pyrazolo[1,5-a]pyrimidine-3-carboxamide] | 44.6
22 | O=C(c1cnn2ccc(N3CCC[C@@H]3c3cncc(F)c3)nc12)N1CCCC1 [Example 94, (R)-(5-(2-(5-fluoropyridin-3-yl)pyrrolidin-1-yl)pyrazolo[1,5-a]pyrimidin-3-yl)(pyrrolidin-1-yl)methanone] | 4.4
23 | O=C(Nc1ccc(F)cn1)c1cnn2ccc(N3CCC[C@@H]3c3cncc(F)c3)nc12 [Example 95, (R)—N-(5-fluoropyridin-2-yl)-5-(2-(5-fluoropyridin-3-yl)pyrrolidin-1-yl)pyrazolo[1,5-a]pyrimidine-3-carboxamide] | 19.2
24 | C[C@H](NC(=O)c1cnn2ccc(N3C[C@@H](O)C[C@@H]3c3cccc(F)c3)nc12)C(F)(F)F [Example 216, 5-((2R,4S)-2-(3-fluorophenyl)-4-hydroxypyrrolidin-1-yl)-N—((S)-1,1,1-trifluoropropan-2-yl)pyrazolo[1,5-a]pyrimidine-3-carboxamide] | 54
25 | O=C(c1cnn2ccc(N3CCC[C@@H]3c3cc(F)ccc3F)nc12)N1CC[C@H](O)C1 [Example 18, (5-((R)-2-(2,5-difluorophenyl)pyrrolidin-1-yl)pyrazolo[1,5-a]pyrimidin-3-yl)((S)-3-hydroxypyrrolidin-1-yl)methanone] | 2.8
26 | Cc1ncc(F)cc1[C@H]1CCCN1c1ccn2ncc(C(=O)N[C@H]3CC[C@H](O)C3)c2n1 [Example 196, 5-((R)-2-(5-fluoro-2-methylpyridin-3-yl)pyrrolidin-1-yl)-N-((1S,3S)-3-hydroxycyclopentyl)pyrazolo[1,5-a]pyrimidine-3-carboxamide] | 10.6
27 | CN1CCN(CCNC(=O)c2cnn3ccc(N4CCC[C@@H]4c4cc(F)ccc4F)nc23)CC1 [Example 171, 5-((R)-2-(2,5-difluorophenyl)pyrrolidin-1-yl)-N-(2-(4-methylpiperazin-1-yl)ethyl)pyrazolo[1,5-a]pyrimidine-3-carboxamide] | 7.8
28 | Cc1ncc(F)cc1[C@H]1CCCN1c1ccn2ncc(C(=O)N[C@H]3CN4CCC3CC4)c2n1 [Example 198, 5-((R)-2-(5-fluoro-2-methylpyridin-3-yl)pyrrolidin-1-yl)-N-((R)-quinuclidin-3-yl)pyrazolo[1,5-a]pyrimidine-3-carboxamide] | 1.6
